Legend:
miR-21 [1] = test: Cleavage of 5′-[32P]-labeled miR-21 by miR-21-miRNase and/or RNase H in multiple turnover conditions; type: biochemical; settings: for Level of cleavage of miR-21 by miRNase alone: 5- or 10-fold excess of target; for Level of cleavage of miR-21 by miRNase alone / τ/2, half-life time of miR-21: miRNase 5 µM, 37°C
Protocol: Unlabeled miR-21 (10 µM, 25 µM, or 50 µM) and 10^5 cpm (Cherenkov’s counting) of [^32P]-miR-21 was incubated at 37°C with either miR-21-miRNase (5 µM) or RNase H (100 U/ml, plus 5 µM of either h-ODN or miR-21-miRNase) in buffer (20 mM Tris-HCl, pH 7.8, 40 mM KCl, 8 mM MgCl2, 1 mM DTT). Reactions were quenched by precipitation of RNA with 2% LiClO4 in acetone, and RNA cleavage products quantified in dried gels as described previously ([Patutina et al., 2017a]) using Molecular Imager FX and Quantity One software.
Figure 4 Cleavage of 5’-[^32P]-labeled miR-21 by miR-21-miRNase and/or RNase H. Autoradiographs of 18% polyacrylamide/8 M urea gel, showing the patterns of cleavage of miR-21 at its 2- (A), 5- (C), and 10-fold (E) molar excess over miR-21-miRNase or h-ODN. […] Duplexes formed by 5′-[^32P]-miR-21 (10, 25, and 50 µM) and h-ODN or miRNase (5 µM) were incubated at 37°C for 24–72 h. Lanes Im and T1: imidazole ladder and partial RNA digestion with RNase T1, respectively; “control”: RNA was incubated in the absence of oligonucleotide or conjugate and in the presence of RNase H (100 U/ml). Diagrams (B), (D), and (F) show time dependency of cleavage of miR-21 by miR-21-miRNase alone, by a synergetic action of miR-21-miRNase and RNase H, or by RNase H (100 U/ml) alone when miR-21 was in a complex with h-ODN at 2-, 5- and 10-fold molar excess of miR-21 over miR-21-miRNase or h-ODN, respectively. (G) Positions of miR-21 cleavage induced by miR-21-miRNase (red arrows), RNase H in the duplex with h-ODN (black arrows), and by combination of miR-21-miRNase and RNase H. (H) The hypothetical representation of miR-21 cleavage by a combination of miRNase and RNase H.

B16 melanoma cells = test: Annexin V-FITC/PI apoptosis assay; type: cell-based, mouse
Protocol: B16 cells were pre-seeded (2 × 10^5 per well of 24-well plates) in DMEM/10% FBS a day before transfection. Medium was replaced with serum-free DMEM, prior to incubation for 4 h with h-ODN, 2′-OMe, Inh (hsa-miR-21 5 p inhibitor, Ambion, USA), miR-21-miRNase, or luc-POC, each (0.1 or 1 µM) pre-complexed with Lipofectamine (Thermo Fisher Scientific, USA) in Opti-MEM medium (Thermo Fisher Scientific, USA) according to manufacturer’s instructions, then cells were cultivated in fresh culture standard medium for 24–72 h.
At 24, 48, and 72 h after transfection, cells were harvested, washed twice with PBS, resuspended in Binding Buffer to a density of 2–5 × 10^5/ml, and incubated with annexin V-FITC and propidium iodide (PI) (ab14085, Abcam, UK) in the dark at room temperature for 15 min, prior to flow cytometry analysis (Novocyte CEA Biosciences, USA).
Figure 2 Biological effect of the miR-21-specific miRNase. (A) Apoptotic profile of B16 melanoma cells after transfection with miR-21-miRNase and control luc-POC. Cytofluorimetric analysis of cells after staining with Annexin V-FITC/PI 48 h after transfection with miRNase or luc-POC (1 µM) in complex with Lipofectamine2000. Q1—population of living cells; Q2—Annexin V-FITC+/PI-, early apoptosis; Q3—Annexin V-FITC+/PI+, late apoptosis; Q4—Annexin V-FITC-/PI+, necrosis. (B) Average percentage of apoptotic (early and late apoptosis) and necrotic B16 cell population. Data represent mean ± s.e. of four independent experiments.(C, D) Invasion activity of B16 cells after incubation with Lipofectamine (LF) alone or treated with either hairpin antisense oligonucleotide (h-ODN), hairpin 2′-OMe oligonucleotide (2′-OMe), commercial miR-21 inhibitor (Inh), miR-21-miRNase, and control conjugate (luc-POC) in the concentration of 1 µM. Migration of cells was recorded in real time using the xCELLigence cell analysis system. Control—B16 cells without treatment. Data represent mean ± s.d. of four independent experiments.

miR-21 [2] = test: miR-21 level in transfected RLS40 cells by PCR analysis; type: cell-based, mouse
Protocol: (§1) RLS40 ascites were taken from CBA mice intraperitoneally injected with tumor cells (2 × 10^6 in 0.2 ml buffered saline) into their abdominal cavities. RLS40 cells, isolated from ascites fluid by filtration through LSM were divided into seven portions: 1) untreated cells; 2) the cells incubated with Lipofectamine; the cells transfected with 1 µM of 3) h-ODN, 4) 2′-OMe, 5) Inh, 6) miR-21-miRNase, or 7) luc-POC each. After 4 h of transfection, cell suspensions (0.1 ml, 2 × 10^6 cells) were intramuscularly inoculated into the right lower limb of CBA mice for solid tumor development. As soon as tumors began to be palpable, the tumor volumes were measured every 2–3 days using calipers. Tumor volumes were calculated as V = (π/6 × length × width × height). Hepatic index was estimated as (liver weight/mouse weight) × 100% and as 5.0% for healthy CBA mice. Tumor doubling time (DT) was estimated as DT = (t − t0) × ln 2/(ln V − ln V0), where (t − t0) indicates the length of time between two measurements of tumor size and V0 and V denote the tumor volume at two points of the measurement ([Ozono et al., 2004]).
(§2) Supplementary Figure 3. Expression level of miR-21 and PTEN and PDCD4 protein level in RLS40 cells after transfection with 1 µM of luc-POC or miR-21-miRNase using LipofectamineTM 2000. (A) Expression level of miR-21 24 h after transfection. The expression of miRNAs was normalized to U6. […]

PTEN = PTEN protein level in transfected RLS40 cells by Western blot; type: cell-based, mouse; settings: 1 µM, 72 h after transfection, GAPDH internal control
Protocol: as §1, §2

h-ODN: miR-21-targeted hairpin deoxyribooligonucleotide AGTCTGATAAGCTACAAGTCAGCGAAAGCTGACTTG, unconjugated with the peptide (DNA, backbone and methylation of C not given here; hairpin at 3' end, unconjugated)
Total extent of miR-21 cleavage in heteroduplex with h-ODN by RNase H alone (miR-21 [1]; RNase H 100 U/ml, h-ODN 5 µM, 2-fold excess of miR-21, plateau by 30 min): 45%
Extent of miR-21 cleavage in heteroduplex with h-ODN by RNase H alone (miR-21 [1]; RNase H 100 U/ml, h-ODN 5 µM, 5-fold excess of miR-21): about 10%
Extent of miR-21 cleavage in heteroduplex with h-ODN by RNase H alone (miR-21 [1]; RNase H 100 U/ml, h-ODN 5 µM, 10-fold excess of miR-21): ~5%

acetyl-[(LeuArg)2Gly]2-aminohexyl-AGTCTGATAAGCTACAAGTCAGCGAAAGCTGACTTG [miR-21-miRNase, peptide acetyl-[(LeuArg)2Gly]2 conjugated through aminohexyl linker to 5′-end of miR-21-targeted hairpin oligodeoxyribonucleotide]
Necrosis of melanoma B16 cells (Annexin V-FITC-/PI+) (B16 melanoma cells; 1 µM with Lipofectamine, 24, 48, 72 h after transfection, maximum extent, flow cytometry): up to 7%
Cells with signs of apoptosis (early and late) (B16 melanoma cells; 1 µM with Lipofectamine, 48 h after transfection (maximum), mean of four independent experiments): 28%
Apoptotic cells relative to intact B16 cells (B16 melanoma cells; 1 µM, 48 h after transfection): six
Decrease in miR-21 level (miR-21 [2]; RLS40 cells, 1 µM, 24 h after transfection, normalized to U6): 2 fold
Reduction in miR-21 level (miR-21 [2]; single treatment of tumor cells prior to transplantation): 50%
Increase in PTEN protein level (PTEN): 1.7 fold
Factor by which RNase H elevated cleavage of miR-21 (from τ/2) (miR-21 [1]; 2-fold excess of miR-21): 14.9 times
Factor by which RNase H enhanced the catalytic turnover (miR-21 [1]; 2-fold excess of miR-21): 15.6 times
Factor by which RNase H elevated cleavage of miR-21 (from τ/2) (miR-21 [1]; 5-fold excess of miR-21): 3.0 times
Factor by which RNase H enhanced the catalytic turnover (miR-21 [1]; 5-fold excess of miR-21): 7.0 times
Factor by which RNase H elevated cleavage of miR-21 (from τ/2) (miR-21 [1]; 10-fold excess of miR-21): 2.4 times
Factor by which RNase H enhanced the catalytic turnover (miR-21 [1]; 10-fold excess of miR-21): 4.6 times
Incubation time to complete (∼100%) RNA degradation (miR-21 [1]; miR-21-miRNase 5 µM with RNase H 100 U/ml, 2-fold excess of miR-21): 8 h
Incubation time to complete RNA degradation (miR-21 [1]; miR-21-miRNase 5 µM with RNase H 100 U/ml, 5-fold excess of miR-21): 24 h
Incubation time to complete RNA degradation (miR-21 [1]; miR-21-miRNase 5 µM with RNase H 100 U/ml, 10-fold excess of miR-21): ≤ 48 h
Level of cleavage of miR-21 by miRNase alone (miR-21 [1]; over 24 h, irrespective of 2-): 65–68%
Level of cleavage of miR-21 by miRNase alone (miR-21 [1]; over 72 h, 2-): 90%
τ/2, half-life time of miR-21 (miR-21 [1]; with RNase H 100 U/ml, miR-21 10 µM (2-fold RNA excess), pH 7.8): 0.7 ± 0.2 h
τ/2, half-life time of miR-21 (miR-21 [1]; with RNase H 100 U/ml, miR-21 25 µM (5-fold RNA excess), pH 7.8): 5.4 ± 0.4 h
τ/2, half-life time of miR-21 (miR-21 [1]; with RNase H 100 U/ml, miR-21 50 µM (10-fold RNA excess), pH 7.8): 4.7 ± 0.4 h
τ/2, half-life time of miR-21 (miR-21 [1]; without RNase H, miR-21 10 µM (2-fold RNA excess), Tris-HCl pH 7.8, 40 mM KCl, 8 mM MgCl2, 1 mM DTT, time for 50% cleavage): 10.4 ± 0.5 h
τ/2, half-life time of miR-21 (miR-21 [1]; without RNase H, miR-21 25 µM (5-fold RNA excess), pH 7.8): 16.2 ± 1.5 h
τ/2, half-life time of miR-21 (miR-21 [1]; without RNase H, miR-21 50 µM (10-fold RNA excess), pH 7.8): 11.04 ± 0.8 h
